Measured values taken from PubChem BioAssay (NCI).
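In this assay, cells in 96-well plates receive the compound at five concentrations for 48 hours. Endpoints are linearly interpolated between the surrounding concentrations. Here, GI50 denotes the concentration required for 50% inhibition of growth. TGI denotes the concentration required for complete inhibition of growth.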

Experiments:
Assay in all cases: NCI tumour cell line growth inhibition, 48 h
[1] = tested on: DU-145 prostate
[2] = tested on: KM12 colon
[3] = tested on: NCI-H460 lung
[4] = tested on: OVCAR-3 ovarian
[5] = tested on: A498 renal
[6] = tested on: TK-10 renal
[7] = tested on: K-562 leukemia
[8] = tested on: NCI-H522 lung
[9] = tested on: RPMI-8226 leukemia
[10] = tested on: SNB-75 CNS
[11] = tested on: HL-60(TB) leukemia
[12] = tested on: HOP-92 NSCLC
[13] = tested on: SN12C renal
[14] = tested on: HS 578T breast
[15] = tested on: HT29 colon
[16] = tested on: OVCAR-5 ovarian
[17] = tested on: CAKI-1 renal
[18] = tested on: RXF 393 renal
[19] = tested on: 786-0 renal
[20] = tested on: SF-268 CNS
[21] = tested on: CCRF-CEM leukemia
[22] = tested on: U251 CNS
[23] = tested on: SK-OV-3 ovarian
[24] = tested on: SK-MEL-5 melanoma
[25] = tested on: PC-3 prostate
[26] = tested on: A549 NSCLC
[27] = tested on: EKVX NSCLC
[28] = tested on: NCI/ADR-RES ovarian
[29] = tested on: SNB-19 CNS
[30] = tested on: MALME-3M melanoma
[31] = tested on: HCC-2998 colon
[32] = tested on: SF-539 CNS
[33] = tested on: COLO 205 colon
[34] = tested on: ACHN renal
[35] = tested on: HCT-116 colon
[36] = tested on: HOP-62 NSCLC
[37] = tested on: SK-MEL-28 melanoma
[38] = tested on: MDA-MB-231 breast
[39] = tested on: SW-620 colon
[40] = tested on: UACC-257 melanoma
[41] = tested on: MOLT-4 leukemia
[42] = tested on: HCT-15 colon
[43] = tested on: NCI-H226 lung
[44] = tested on: BT-549 breast
[45] = tested on: LOX IMVI melanoma
[46] = tested on: MDA-MB-435
[47] = tested on: MCF7 breast
[48] = tested on: M14 melanoma
[49] = tested on: UACC-62 melanoma
[50] = tested on: T-47D breast
[51] = tested on: NCI-H23 lung
[52] = tested on: SF-295 CNS
[53] = tested on: OVCAR-8 ovarian

## CO[C@]12C=C/C(=C(/C(=O)OCc3cccnc3)C(=O)CCCCCCCC[C@]3(OC)C=C/C(=C(/C(=O)OCc4cccnc4)C(=O)CCCCCCCC1)O3)O2
[1]
  GI50: 0.375 µM
  TGI: 1.27 µM
[2]
  GI50: 0.207 µM
  TGI: 0.429 µM
[3]
  GI50: 0.321 µM
  TGI: 1.02 µM
[4]
  GI50: 0.312 µM
  TGI: 0.917 µM
[5]
  GI50: 0.432 µM
  TGI: 1.72 µM
[6]
  GI50: 0.583 µM
  TGI: 1.96 µM
[7]
  GI50: 0.337 µM
  TGI: 1.3 µM
[8]
  GI50: 0.225 µM
  TGI: 0.554 µM
[9]
  GI50: 0.291 µM
  TGI: 0.927 µM
[10]
  GI50: 0.247 µM
  TGI: 1.2 µM
[11]
  GI50: 0.337 µM
  TGI: 1.02 µM
[12]
  GI50: 0.262 µM
  TGI: 0.889 µM

## COc1ccc2c(C(=O)NCCCCCC(=O)O)cc3cc4c(cc3c2c1)OCO4
[13]
  GI50: > 100 µM
  TGI: > 100 µM
[14]
  GI50: > 100 µM
  TGI: > 100 µM
[15]
  GI50: > 100 µM
  TGI: > 100 µM
[16]
  GI50: > 100 µM
  TGI: > 100 µM
[1]
  GI50: > 100 µM
  TGI: > 100 µM
[17]
  GI50: > 100 µM
  TGI: > 100 µM
[18]
  GI50: > 100 µM
  TGI: > 100 µM
[19]
  GI50: > 100 µM
  TGI: > 100 µM
[20]
  GI50: 58 µM
  TGI: > 100 µM
[2]
  GI50: > 100 µM
  TGI: > 100 µM
[21]
  GI50: > 100 µM
  TGI: > 100 µM
[22]
  GI50: > 100 µM
  TGI: > 100 µM
[3]
  GI50: > 100 µM
  TGI: > 100 µM
[4]
  GI50: > 100 µM
  TGI: > 100 µM
[23]
  GI50: > 100 µM
  TGI: > 100 µM
[24]
  GI50: > 100 µM
  TGI: > 100 µM
[25]
  GI50: > 100 µM
  TGI: > 100 µM
[5]
  GI50: > 100 µM
  TGI: > 100 µM
[6]
  GI50: > 100 µM
  TGI: > 100 µM
[7]
  GI50: > 100 µM
  TGI: > 100 µM
[26]
  GI50: > 100 µM
  TGI: > 100 µM
[27]
  GI50: > 100 µM
  TGI: > 100 µM
[9]
  GI50: > 100 µM
  TGI: > 100 µM
[28]
  GI50: > 100 µM
  TGI: > 100 µM
[29]
  GI50: > 100 µM
  TGI: > 100 µM
[10]
  GI50: 23.9 µM
  TGI: 97.9 µM
[30]
  GI50: > 100 µM
  TGI: > 100 µM
[31]
  GI50: > 100 µM
  TGI: > 100 µM
[32]
  GI50: > 100 µM
  TGI: > 100 µM
[33]
  GI50: > 100 µM
  TGI: > 100 µM
[34]
  GI50: > 100 µM
  TGI: > 100 µM
[35]
  GI50: > 100 µM
  TGI: > 100 µM
[36]
  GI50: > 100 µM
  TGI: > 100 µM
[37]
  GI50: > 100 µM
  TGI: > 100 µM
[12]
  GI50: > 100 µM
  TGI: > 100 µM
[38]
  GI50: 99.5 µM
  TGI: > 100 µM
[39]
  GI50: > 100 µM
  TGI: > 100 µM
[40]
  GI50: > 100 µM
  TGI: > 100 µM
[41]
  GI50: > 100 µM
  TGI: > 100 µM
[42]
  GI50: > 100 µM
  TGI: > 100 µM
[43]
  GI50: 83.5 µM
  TGI: > 100 µM
[44]
  GI50: 75.5 µM
  TGI: > 100 µM
[45]
  GI50: > 100 µM
  TGI: > 100 µM
[46]
  GI50: > 100 µM
  TGI: > 100 µM
[47]
  GI50: > 100 µM
  TGI: > 100 µM
[48]
  GI50: > 100 µM
  TGI: > 100 µM
[49]
  GI50: 83 µM
  TGI: > 100 µM
[50]
  GI50: 80 µM
  TGI: > 100 µM
[51]
  GI50: > 100 µM
  TGI: > 100 µM
[52]
  GI50: > 100 µM
  TGI: > 100 µM
[53]
  GI50: > 100 µM
  TGI: > 100 µM
